Source: ChEMBL document CHEMBL4507276 (2021)

Assays:
[1] = biological target: Adenosine receptor A2b (Homo sapiens) (UniProt P29275); assay: A2B/H Cerep selectivity data (BI); settings: Compound concentration 20.0 uM
[2] = biological target: Alpha-2C adrenergic receptor (Homo sapiens) (UniProt P18825); assay: ALPHA2CH_ANTAG Cerep selectivity data (BI); settings: filed as antagonist, Compound concentration 20.0 uM
[3] = biological target: Bombesin receptor subtype-3 (Homo sapiens) (UniProt P32247); assay: BB3H_AGON Cerep selectivity data (BI); settings: filed as agonist, Compound concentration 20.0 uM
Bombesin receptor subtype-3 (Homo sapiens), sequence (P32247 whole entry): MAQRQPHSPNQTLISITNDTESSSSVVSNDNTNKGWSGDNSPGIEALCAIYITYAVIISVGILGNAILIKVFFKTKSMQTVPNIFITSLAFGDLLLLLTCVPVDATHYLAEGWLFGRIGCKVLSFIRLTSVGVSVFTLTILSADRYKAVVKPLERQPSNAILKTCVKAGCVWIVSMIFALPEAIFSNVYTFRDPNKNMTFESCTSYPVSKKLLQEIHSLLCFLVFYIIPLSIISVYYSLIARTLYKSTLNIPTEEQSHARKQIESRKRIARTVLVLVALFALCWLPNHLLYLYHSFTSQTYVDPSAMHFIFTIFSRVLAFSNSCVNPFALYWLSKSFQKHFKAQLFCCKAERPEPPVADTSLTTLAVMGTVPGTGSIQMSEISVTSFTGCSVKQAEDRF

[4] = biological target: Beta-3 adrenergic receptor (Homo sapiens) (UniProt P13945); assay: BETA3/HU Cerep selectivity data (BI); settings: filed as antagonist, Compound concentration 20.0 uM
Beta-3 adrenergic receptor (Homo sapiens), sequence (P13945 whole entry, looked up): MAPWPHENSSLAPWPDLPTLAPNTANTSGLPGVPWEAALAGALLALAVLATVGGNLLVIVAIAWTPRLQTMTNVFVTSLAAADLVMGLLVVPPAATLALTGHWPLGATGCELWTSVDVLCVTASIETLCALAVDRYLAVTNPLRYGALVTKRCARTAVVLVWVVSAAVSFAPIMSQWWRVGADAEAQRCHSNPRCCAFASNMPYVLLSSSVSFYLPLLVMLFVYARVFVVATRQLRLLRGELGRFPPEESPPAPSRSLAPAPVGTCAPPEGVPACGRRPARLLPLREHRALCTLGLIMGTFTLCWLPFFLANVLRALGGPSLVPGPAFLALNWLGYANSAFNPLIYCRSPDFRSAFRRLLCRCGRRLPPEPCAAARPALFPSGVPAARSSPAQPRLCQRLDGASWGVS

[5] = biological target: Catechol O-methyltransferase (Sus scrofa) (UniProt Q99028); assay: CATOMETHTRAN Cerep selectivity data (BI); settings: Compound concentration 20.0 uM
[6] = biological target: Delta-type opioid receptor (Homo sapiens) (UniProt P41143); assay: DELTA2/H Cerep selectivity data (BI); settings: Compound concentration 20.0 uM
[7] = biological target: Histamine H4 receptor (Homo sapiens) (UniProt Q9H3N8); assay: H4/H AG Cerep selectivity data (BI); settings: filed as agonist, Compound concentration 20.0 uM
Histamine H4 receptor (Homo sapiens), sequence (Q9H3N8 whole entry): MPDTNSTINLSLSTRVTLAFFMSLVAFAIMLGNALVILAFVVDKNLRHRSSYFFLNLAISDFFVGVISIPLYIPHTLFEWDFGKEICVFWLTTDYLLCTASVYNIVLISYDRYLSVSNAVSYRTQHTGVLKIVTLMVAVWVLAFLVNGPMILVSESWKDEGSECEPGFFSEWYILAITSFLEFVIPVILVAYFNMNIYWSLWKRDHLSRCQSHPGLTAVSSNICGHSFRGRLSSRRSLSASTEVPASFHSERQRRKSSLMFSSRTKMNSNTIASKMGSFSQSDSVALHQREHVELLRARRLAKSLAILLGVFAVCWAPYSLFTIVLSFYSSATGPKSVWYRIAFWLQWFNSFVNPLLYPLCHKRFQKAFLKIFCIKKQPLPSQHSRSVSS

[8] = biological target: Somatostatin receptor type 1 (Homo sapiens) (UniProt P30872); assay: SST1H_AGON Cerep selectivity data (BI); settings: filed as agonist, Compound concentration 20.0 uM
[9] = biological target: Sodium-dependent dopamine transporter (Homo sapiens, UniProt Q01959); assay: DATRANS/H Eurofins-Panlabs selectivity data (BI); settings: Compound concentration 10.0 uM
[10] = biological target: Histamine H1 receptor (Homo sapiens) (UniProt P35367); assay: H1/H Eurofins-Panlabs selectivity data (BI); settings: Compound concentration 10.0 uM
[11] = test system: Tyrosine-protein kinase ABL1 (Homo sapiens), P00519 [T315I]; assay: ABL1 T315I Invitrogen selectivity data (BI); settings: Compound concentration 3.0 uM
[12] = biological target: Cyclin-dependent kinase 2/cyclin A (Homo sapiens) (UniProt P24941+P20248+P78396); assay: CDK2/CYCLINA Invitrogen selectivity data (BI); format: protein-complex assay; settings: Compound concentration 3.0 uM
[13] = test system: Epidermal growth factor receptor (Homo sapiens), P00533 [UNDEFINED MUTATION]; assay: EGFRT790L858 Invitrogen selectivity data (BI); settings: Compound concentration 3.0 uM
Epidermal growth factor receptor (Homo sapiens), P00533 [UNDEFINED MUTATION], sequence (P00533 whole entry, looked up, change not shown): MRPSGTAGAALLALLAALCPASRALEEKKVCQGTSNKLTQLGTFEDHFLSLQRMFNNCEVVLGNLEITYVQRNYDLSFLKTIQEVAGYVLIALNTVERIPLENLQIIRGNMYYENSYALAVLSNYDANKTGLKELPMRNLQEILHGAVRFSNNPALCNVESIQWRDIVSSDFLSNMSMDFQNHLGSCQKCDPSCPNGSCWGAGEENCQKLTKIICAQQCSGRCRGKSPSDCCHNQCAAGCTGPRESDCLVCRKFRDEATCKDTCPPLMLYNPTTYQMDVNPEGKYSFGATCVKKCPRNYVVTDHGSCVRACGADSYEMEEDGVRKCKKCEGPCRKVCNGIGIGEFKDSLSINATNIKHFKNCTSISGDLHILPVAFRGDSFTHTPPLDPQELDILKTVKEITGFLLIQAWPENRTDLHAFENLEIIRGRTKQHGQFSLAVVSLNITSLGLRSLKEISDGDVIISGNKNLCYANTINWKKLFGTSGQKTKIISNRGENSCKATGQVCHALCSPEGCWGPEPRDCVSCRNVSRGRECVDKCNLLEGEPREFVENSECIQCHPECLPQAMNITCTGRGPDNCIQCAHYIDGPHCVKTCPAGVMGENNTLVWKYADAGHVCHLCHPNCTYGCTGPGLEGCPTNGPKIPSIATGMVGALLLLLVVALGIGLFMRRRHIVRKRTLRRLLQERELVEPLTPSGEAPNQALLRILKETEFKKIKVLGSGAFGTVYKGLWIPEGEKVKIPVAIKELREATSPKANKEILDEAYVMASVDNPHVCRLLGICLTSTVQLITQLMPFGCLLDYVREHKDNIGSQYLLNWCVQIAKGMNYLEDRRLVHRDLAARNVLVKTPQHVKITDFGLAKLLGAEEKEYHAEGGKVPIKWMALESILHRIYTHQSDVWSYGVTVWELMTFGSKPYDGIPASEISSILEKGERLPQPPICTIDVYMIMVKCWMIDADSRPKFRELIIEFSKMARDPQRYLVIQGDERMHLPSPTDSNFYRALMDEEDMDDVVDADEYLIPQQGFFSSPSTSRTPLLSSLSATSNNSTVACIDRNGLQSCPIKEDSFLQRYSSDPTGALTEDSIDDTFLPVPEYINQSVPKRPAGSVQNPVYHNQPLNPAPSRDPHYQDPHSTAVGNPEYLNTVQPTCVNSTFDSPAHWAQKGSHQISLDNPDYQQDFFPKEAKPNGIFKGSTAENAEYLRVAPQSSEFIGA

[14] = biological target: T1, Ephrin type-A receptor 1 (Homo sapiens) (UniProt P21709); assay: EPHA1 Invitrogen selectivity data (BI); settings: Compound concentration 3.0 uM
T1 sequence (whole entry): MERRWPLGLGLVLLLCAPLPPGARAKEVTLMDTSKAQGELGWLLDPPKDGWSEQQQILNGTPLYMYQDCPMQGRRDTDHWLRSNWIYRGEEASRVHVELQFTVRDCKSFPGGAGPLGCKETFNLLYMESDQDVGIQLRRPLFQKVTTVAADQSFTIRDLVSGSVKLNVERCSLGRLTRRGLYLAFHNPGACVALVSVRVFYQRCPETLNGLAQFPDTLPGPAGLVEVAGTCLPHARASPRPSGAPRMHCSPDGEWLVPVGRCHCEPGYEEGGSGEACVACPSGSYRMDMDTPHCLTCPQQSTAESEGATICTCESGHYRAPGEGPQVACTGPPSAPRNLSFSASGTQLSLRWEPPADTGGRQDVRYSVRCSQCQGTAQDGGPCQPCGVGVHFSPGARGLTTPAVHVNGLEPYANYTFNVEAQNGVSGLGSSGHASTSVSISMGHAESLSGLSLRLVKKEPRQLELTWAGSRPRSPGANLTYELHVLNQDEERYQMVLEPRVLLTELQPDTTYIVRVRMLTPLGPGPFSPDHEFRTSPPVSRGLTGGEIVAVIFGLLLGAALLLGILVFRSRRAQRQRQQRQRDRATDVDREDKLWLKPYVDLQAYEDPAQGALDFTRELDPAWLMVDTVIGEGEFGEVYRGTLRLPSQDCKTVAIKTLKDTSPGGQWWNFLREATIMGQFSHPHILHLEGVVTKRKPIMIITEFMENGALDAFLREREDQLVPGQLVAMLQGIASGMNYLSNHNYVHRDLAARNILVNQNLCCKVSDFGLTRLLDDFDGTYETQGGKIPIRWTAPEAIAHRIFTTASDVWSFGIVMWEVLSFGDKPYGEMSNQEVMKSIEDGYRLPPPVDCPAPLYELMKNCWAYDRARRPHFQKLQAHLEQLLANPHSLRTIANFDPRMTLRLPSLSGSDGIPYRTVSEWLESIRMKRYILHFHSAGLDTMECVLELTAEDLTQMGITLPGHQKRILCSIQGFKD

[15] = biological target: Fibroblast growth factor receptor 1 (Homo sapiens) (UniProt P11362); assay: FGFR1 Invitrogen selectivity data (BI); settings: Compound concentration 3.0 uM
Fibroblast growth factor receptor 1 (Homo sapiens), sequence (P11362 22-822 limits assumed): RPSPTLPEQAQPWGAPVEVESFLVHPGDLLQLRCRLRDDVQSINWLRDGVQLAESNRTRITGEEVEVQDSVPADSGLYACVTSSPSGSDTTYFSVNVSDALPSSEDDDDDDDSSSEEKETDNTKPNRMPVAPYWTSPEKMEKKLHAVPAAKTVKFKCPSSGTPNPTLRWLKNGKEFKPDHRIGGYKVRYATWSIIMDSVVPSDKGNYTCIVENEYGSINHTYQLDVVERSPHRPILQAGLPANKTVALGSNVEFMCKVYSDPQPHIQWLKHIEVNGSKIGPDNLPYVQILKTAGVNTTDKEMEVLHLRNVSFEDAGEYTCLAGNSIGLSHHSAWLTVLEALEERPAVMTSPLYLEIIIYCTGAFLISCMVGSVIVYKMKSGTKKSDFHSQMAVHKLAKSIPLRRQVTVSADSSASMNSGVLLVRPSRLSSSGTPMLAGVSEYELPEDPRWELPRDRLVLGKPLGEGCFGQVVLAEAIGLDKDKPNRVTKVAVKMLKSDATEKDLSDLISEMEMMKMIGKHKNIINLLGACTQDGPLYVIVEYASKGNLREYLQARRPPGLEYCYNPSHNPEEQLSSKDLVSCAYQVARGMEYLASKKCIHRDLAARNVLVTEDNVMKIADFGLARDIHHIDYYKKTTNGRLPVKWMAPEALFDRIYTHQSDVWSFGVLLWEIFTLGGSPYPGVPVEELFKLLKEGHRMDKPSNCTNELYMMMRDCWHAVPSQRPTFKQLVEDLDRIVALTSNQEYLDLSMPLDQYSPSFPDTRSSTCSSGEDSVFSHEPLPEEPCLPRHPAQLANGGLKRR

[16] = biological target: G protein-coupled receptor kinase 6 (Homo sapiens) (UniProt P43250); assay: GRK6 Invitrogen selectivity data (BI); settings: Compound concentration 3.0 uM
[17] = biological target: Interleukin-1 receptor-associated kinase 1 (Homo sapiens) (UniProt P51617); assay: IRAK1 Invitrogen selectivity data (BI); settings: Compound concentration 3.0 uM
[18] = biological target: Vascular endothelial growth factor receptor 2 (Homo sapiens) (UniProt P35968); assay: KDR Invitrogen selectivity data (BI); settings: Compound concentration 3.0 uM
Vascular endothelial growth factor receptor 2 (Homo sapiens), sequence (P35968 whole entry): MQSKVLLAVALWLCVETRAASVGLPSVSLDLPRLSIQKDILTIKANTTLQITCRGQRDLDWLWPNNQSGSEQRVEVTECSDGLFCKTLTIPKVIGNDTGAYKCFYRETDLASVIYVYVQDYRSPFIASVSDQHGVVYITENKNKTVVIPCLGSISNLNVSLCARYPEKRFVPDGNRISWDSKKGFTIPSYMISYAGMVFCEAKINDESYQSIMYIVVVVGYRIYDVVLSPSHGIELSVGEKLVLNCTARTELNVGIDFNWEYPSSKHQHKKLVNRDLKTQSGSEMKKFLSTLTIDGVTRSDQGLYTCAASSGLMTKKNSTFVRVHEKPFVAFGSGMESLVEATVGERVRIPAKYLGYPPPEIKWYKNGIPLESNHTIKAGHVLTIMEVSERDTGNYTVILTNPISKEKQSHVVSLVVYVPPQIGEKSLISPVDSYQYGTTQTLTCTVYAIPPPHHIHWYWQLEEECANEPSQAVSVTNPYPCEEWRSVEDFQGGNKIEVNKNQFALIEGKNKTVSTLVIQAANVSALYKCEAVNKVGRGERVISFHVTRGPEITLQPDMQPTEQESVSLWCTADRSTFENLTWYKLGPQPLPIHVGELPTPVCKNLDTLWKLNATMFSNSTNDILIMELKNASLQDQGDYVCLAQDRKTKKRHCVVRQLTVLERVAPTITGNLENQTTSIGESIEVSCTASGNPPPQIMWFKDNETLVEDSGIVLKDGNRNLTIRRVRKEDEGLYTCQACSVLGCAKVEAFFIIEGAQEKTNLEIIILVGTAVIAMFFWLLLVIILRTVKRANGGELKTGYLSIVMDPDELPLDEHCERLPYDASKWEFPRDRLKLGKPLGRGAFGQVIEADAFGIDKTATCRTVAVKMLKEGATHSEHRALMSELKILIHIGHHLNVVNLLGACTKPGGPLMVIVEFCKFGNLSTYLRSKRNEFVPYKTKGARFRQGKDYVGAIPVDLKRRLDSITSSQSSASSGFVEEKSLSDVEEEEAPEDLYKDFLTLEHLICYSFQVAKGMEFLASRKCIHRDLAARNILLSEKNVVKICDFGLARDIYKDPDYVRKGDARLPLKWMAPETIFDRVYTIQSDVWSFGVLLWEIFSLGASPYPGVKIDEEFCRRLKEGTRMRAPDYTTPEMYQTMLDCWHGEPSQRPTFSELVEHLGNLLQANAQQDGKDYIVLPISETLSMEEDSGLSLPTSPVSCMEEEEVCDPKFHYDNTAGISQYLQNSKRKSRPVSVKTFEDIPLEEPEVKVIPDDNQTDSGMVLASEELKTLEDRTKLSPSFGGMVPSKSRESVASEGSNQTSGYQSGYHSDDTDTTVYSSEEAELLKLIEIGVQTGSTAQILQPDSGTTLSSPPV

[19] = biological target: Mitogen-activated protein kinase 8 (Homo sapiens) (UniProt P45983); assay: MAPK8 Invitrogen selectivity data (BI); settings: Compound concentration 3.0 uM
[20] = biological target: T2, MAP/microtubule affinity-regulating kinase 4 (Homo sapiens) (UniProt Q96L34); assay: MARK4 Invitrogen selectivity data (BI); settings: Compound concentration 3.0 uM
T2 sequence (whole entry): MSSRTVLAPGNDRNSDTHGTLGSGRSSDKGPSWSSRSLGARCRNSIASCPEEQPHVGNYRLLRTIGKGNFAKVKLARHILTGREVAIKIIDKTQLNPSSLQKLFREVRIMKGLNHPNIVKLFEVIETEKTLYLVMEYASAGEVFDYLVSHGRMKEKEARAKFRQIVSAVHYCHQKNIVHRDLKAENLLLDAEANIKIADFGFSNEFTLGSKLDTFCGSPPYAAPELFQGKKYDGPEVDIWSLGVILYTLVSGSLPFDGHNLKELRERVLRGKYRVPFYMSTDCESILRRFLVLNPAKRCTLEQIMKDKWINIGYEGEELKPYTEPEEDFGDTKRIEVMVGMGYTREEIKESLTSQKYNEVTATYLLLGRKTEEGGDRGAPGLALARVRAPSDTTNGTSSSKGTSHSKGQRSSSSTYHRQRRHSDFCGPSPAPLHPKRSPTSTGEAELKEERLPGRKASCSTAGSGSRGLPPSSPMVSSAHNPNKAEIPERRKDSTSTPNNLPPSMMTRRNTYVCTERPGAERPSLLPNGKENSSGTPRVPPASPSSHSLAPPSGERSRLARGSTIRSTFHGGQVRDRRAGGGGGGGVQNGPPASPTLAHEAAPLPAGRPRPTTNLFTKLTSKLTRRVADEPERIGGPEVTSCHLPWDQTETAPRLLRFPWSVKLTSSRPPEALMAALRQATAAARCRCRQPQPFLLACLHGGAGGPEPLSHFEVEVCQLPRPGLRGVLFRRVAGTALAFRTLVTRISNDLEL

[21] = biological target: Serine/threonine-protein kinase pim-2 (Homo sapiens) (UniProt Q9P1W9); assay: PIM2 Invitrogen selectivity data (BI); settings: Compound concentration 3.0 uM
Serine/threonine-protein kinase pim-2 (Homo sapiens), sequence (Q9P1W9 whole entry, looked up): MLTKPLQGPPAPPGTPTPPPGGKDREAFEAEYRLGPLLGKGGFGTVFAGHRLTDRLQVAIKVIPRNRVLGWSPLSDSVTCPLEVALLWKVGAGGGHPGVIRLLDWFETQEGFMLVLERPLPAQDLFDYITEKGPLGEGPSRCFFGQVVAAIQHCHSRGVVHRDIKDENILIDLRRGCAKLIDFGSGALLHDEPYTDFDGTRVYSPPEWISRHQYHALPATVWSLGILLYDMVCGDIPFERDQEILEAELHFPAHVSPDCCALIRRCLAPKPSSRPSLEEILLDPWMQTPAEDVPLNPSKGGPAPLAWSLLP

[22] = biological target: Tyrosine-protein kinase Yes (Homo sapiens) (UniProt P07947); assay: YES1 Invitrogen selectivity data (BI); settings: Compound concentration 3.0 uM

Measured: residual activity

CN(C)C(=O)Cn1cc(-c2nc([C@@](C)(c3ccc(-c4cnc(N)nc4)cc3)C3CC3)no2)cn1 [BI 665915]
inactive: [1] 83% | [2] 103% | [3] 108% | [4] 86% | [5] 99% | [6] 100% | [7] 109% | [8] 96% | [9] 95% | [10] 103% | [11] 83% | [12] 100% | [13] 101% | [14] 89% | [15] 100% | [16] 102% | [17] 100% | [18] 90.5% | [19] 93% | [20] 104% | [21] 101% | [22] 88.5%
